In article PMC10794144, “A novel antibiotic class targeting the lipopolysaccharide transporter” (Nature, 2024):
Read-outs that look alike come from different tables or passages of the source. Marks after values point to notes of the source that are not given here.

Legend:
[1] = target: CYP2D6 (Homo sapiens, UniProt P10635); assay: CYP inhibition; assay type: in vitro ADME
[2] = target: T1, Adenosine A3 respetor (Homo sapiens, UniProt P0DMS8); assay: Off-target screening (CEREP); assay type: binding; settings: read-out: percent inhibition
T1 construct: purchased Eurofins CEREP SA
T1 sequence (P0DMS8 1-318): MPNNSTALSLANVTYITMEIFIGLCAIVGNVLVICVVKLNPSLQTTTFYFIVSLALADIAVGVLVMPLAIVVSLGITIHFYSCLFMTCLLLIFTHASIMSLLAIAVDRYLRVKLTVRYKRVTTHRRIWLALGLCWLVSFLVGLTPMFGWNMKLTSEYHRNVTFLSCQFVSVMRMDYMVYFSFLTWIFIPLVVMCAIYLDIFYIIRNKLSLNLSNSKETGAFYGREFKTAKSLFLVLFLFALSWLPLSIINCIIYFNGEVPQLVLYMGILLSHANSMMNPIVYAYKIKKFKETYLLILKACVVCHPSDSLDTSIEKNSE
Summary of the method: (§1)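 Percent inhibition is reported, relative to radioligand signal in binding formats or to control enzymatic activity in enzyme formats. Each compound was tested once at 10 µM, in duplicate.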

[3] = target: T2, Alpha2A-adrenoreceptor (Homo sapiens, UniProt P08913); assay: Off-target screening (CEREP); assay type: binding; settings: read-out: percent inhibition
T2 construct: purchased Eurofins CEREP SA
T2 sequence (P08913 1-465): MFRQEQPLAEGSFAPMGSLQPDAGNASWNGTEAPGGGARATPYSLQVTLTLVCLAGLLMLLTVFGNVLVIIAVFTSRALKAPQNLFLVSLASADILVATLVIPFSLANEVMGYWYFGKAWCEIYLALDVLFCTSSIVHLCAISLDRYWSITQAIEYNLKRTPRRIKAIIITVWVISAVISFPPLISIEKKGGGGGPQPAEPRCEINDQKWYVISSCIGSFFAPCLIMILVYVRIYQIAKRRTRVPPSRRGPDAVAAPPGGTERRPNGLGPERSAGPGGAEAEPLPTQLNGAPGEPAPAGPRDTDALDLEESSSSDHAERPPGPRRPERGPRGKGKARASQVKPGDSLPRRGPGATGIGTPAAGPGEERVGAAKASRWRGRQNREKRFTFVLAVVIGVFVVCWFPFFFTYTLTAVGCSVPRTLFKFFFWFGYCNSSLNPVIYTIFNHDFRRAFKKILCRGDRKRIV
Summary of the method: as §1

[4] = target: T3, Kappa opioid receptor (Homo sapiens, UniProt P41145); assay: Off-target screening (CEREP); assay type: binding; settings: read-out: percent inhibition
T3 construct: purchased Eurofins CEREP SA
T3 sequence (P41145 whole entry): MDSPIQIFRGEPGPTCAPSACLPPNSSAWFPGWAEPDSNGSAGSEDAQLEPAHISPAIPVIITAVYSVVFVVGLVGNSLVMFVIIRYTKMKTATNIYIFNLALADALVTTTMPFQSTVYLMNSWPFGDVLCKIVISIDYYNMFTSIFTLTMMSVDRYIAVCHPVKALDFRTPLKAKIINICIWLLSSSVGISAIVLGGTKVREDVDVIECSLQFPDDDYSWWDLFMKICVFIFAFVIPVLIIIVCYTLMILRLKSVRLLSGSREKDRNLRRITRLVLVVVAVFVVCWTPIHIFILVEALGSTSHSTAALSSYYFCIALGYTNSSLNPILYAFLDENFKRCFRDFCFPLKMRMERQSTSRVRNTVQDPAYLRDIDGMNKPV
Summary of the method: as §1

[5] = Human whole blood haemolysis assay; settings: human heparinated blood, 10 min 37 °C
Description: For the in vitro haemolysis test, blood was provided by Roche medical services through an anonymous blood donation for research program, approved by the Ethics Committee Northwestern Switzerland and Central Switzerland (EKNZ) and collected with informed consent. Blood was collected by venipuncture in ethylenediaminetetraacetic acid (EDTA) and Li-heparin-coated tubes. Plasma was prepared from anticoagulated blood by centrifugation (2,500g; 10 min; at room temperature) and the haematocrit was measured to ensure that it was within normal reference values. Each formulation of compound in saline was added at a concentration of 8 mg ml^−1 into test tubes containing exactly 0.5 ml of heparinated blood to give a final assay volume of 1 ml and a concentration of 4 mg ml^−1 or less (following further dilutions). After incubation in a water bath for 10 min at 37 °C, the tubes were centrifuged (10 min, 1,811g at room temperature) and 100 μl of the supernatant was subsequently transferred into test tubes containing 5 ml Drabkins solution (RANDOX Laboratories) and 1 ml phosphate buffer. Haemoglobin was photometrically determined at 540 nm according to the RANDOX test-kit instructions. The results were expressed as percentage haemolysis extrapolated from an internal standard curve with 0%, 50% and 100% haemolysed blood samples.

[6] = system: A. baumannii; assay: Bacterial phenotypic fingerprint profiling; assay type: cell-based, Acinetobacter baumannii; settings: random forest model
Description: Sample preparation and analysis was conducted as previously described[26] for A. baumannii, with the generated and analysed dataset consisting of three independent experiments, n = 3, as the only modification to the protocol.
For the random forest analysis data proximity analysis from 4x and 8x LOED are pooled and the number of datapoints are reduced by down sampling to be equal for all reference conditions the maximal projection of the analysis. b, In the right panel an out-of-bag validation of the random forest classification model is indicated for the reference compounds. […] The degree of frequency of matching prediction correspond to the length of the individual bar segment, where a longer segment represents a higher similarity. […] Source Data

[7] = system: panel of 50 off-targets; assay: Off-target activity screening, number of hits in panel of 50; assay type: binding; settings: > 30% inhibition at 10 μM
[8] = Five-day repeat dose tolerability study; assay type: in vivo, rat; settings: for Clinical observations: male Wistar rats, n = 4; for Clinical chemistry / Coagulation / Haematology: 5 days; for MTD: slow IV once daily for 5 days
Description: Assessment of tolerability was based on mortality, in-life observations, body weight, food consumption and clinical pathology during the in-life phase. Moreover, gross pathology and histopathology were performed at unscheduled or scheduled euthanasia on day 6.

[9] = system: A. baumannii; assay: Neutropaenic mouse thigh infection model; assay type: in vivo; settings: for Bacterial Load (average): A. baumannii ACC01085, neutropenic mice, summary table, same as average Log CFU/Thigh
Description: An intramuscular inoculation of a bacterial suspension of approximately 10^6 CFU per thigh was used to induce the infection. Treatment started 2 h after infection. […] In the pneumonia model, an intratracheal inoculation of approximately 10^7 CFU per lung was used to induce the infection. Treatment started 2 h after infection. […] Standard of care antibiotic was tested at a single dose in both infection models. GraphPad Prism 8 was used for graphical presentation and to analyse data.

[10] = 0.6 mg/kg slow IV once daily for 5 days
[11] = 6 mg/kg slow IV once daily for 5 days

Chain of CYP2D6 (P10635 whole entry): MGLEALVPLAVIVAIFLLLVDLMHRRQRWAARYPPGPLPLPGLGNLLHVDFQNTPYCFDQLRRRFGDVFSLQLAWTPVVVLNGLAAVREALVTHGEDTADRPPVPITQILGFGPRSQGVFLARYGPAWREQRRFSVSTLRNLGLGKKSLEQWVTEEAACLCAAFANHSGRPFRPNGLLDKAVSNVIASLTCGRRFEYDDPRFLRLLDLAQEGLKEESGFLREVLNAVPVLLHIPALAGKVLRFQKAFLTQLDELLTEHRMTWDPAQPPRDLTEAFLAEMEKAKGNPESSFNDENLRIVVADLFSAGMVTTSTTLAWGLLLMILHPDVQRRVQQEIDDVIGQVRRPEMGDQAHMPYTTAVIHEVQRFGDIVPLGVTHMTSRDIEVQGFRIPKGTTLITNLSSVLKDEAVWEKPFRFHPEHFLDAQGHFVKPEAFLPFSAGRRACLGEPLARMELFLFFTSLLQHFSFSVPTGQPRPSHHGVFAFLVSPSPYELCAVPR

Compound | CYP inh. (2D6) [1] | inhibition at 10 µM ([2]; 10 µM, duplicates) [%] | inhibition at 10 µM ([3]; 10 µM, duplicates) [%] | inhibition at 10 µM ([4]; 10 µM, duplicates) [%] | Similarity towards RO7202110 [6] [%] | inhibition at 10 µM [2] [%] | inhibition at 10 µM [3] [%] | inhibition at 10 µM [4] [%] | Off-target hits [7] | Clinical observations [8, 10] | Clinical observations [8, 11] | Clinical chemistry ([8]; rats, 0.6 mg/kg IV) | Coagulation ([8]; rats, 0.6 mg/kg IV) | Haematology ([8]; rats, 0.6 mg/kg IV) | Clinical chemistry ([8]; rats, 6 mg/kg IV) | Coagulation ([8]; rats, 6 mg/kg IV) | Haematology ([8]; rats, 6 mg/kg IV) | MTD ([8]; rats) [mg/kg] | Haemolysis [5] | other results
CN1C(=O)[C@H](CCCN)NC(=O)[C@H](CCCN)NCc2ccccc2Sc2ccccc2CNC(=O)[C@@H]1Cc1c[nH]c2ccccc12 [RO7036668] | > 50 µM | 32 | -2 | 69 | – | – | – | – | – | – | – | – | – | – | – | – | – | – | – | –
CN1C(=O)[C@H](CCCCN)NC(=O)[C@H](CCCN)NCc2cccnc2Sc2c(Cl)ccc(Cl)c2CNC(=O)[C@@H]1Cc1c[nH]c2ccccc12 [RO7075573] | > 50 µM | – | – | – | > 70 | 11 | -5 | 26 | 1 # | Slightly discolored tail after dosing | Slightly discolored tail after dosing, red extremities on D2 after dosing, prone posture, rolling gait, hypoactivity, laboured respiration, reduced food consumption – euthanized for humane reasons D2 | No relevant changes | No change | No change | Decreased HDL, triglyceride, cholesterol. Increased GLDH, AST and ALAT, CK, BUN, creatine, phosphorus, haptoglobin | Decreased prothrombin time and increased aPTT | Decrease in haemoglobin and haematocrit, increase in neutrophils | 0.6 | – | Haemolysis ([5]; 4 mg/mL, haemoglobin at 540 nm): 37%; Decrease in lipid parameters (cholesterol, triglycerides, HDL) ([8]; rats, after intravenous administration): > 40%; Decrease in thigh bacterial burden ([9]; ACC00535, neutropaenic mice, s.c. every 4 h for 24 h): > 4 log CFU
CN1C(=O)[C@H](CCCCN)NC(=O)[C@H](CCCN)NCc2cccnc2Sc2c(Cl)ccc(-c3ccc(C(=O)O)cc3)c2CNC(=O)[C@@H]1Cc1c[nH]c2ccccc12 [RO7202110] | >50 (3A4) >50 (2C9) >50 (2D6) μM | 9 | -2 | 32 | – | – | – | – | 2 # | – | – | – | – | – | – | – | – | – | None | –
C[C@@H](O)[C@H]1C(=O)N2C(C(=O)O)=C(S[C@@H]3CN[C@H](C(=O)N(C)C)C3)[C@H](C)[C@H]12 [meropenem, reference compound] | – | – | – | – | – | – | – | – | – | – | – | – | – | – | – | – | – | – | – | delta 24 hr ([9]; A. baumannii ACC00535 (APV00535), neutropenic mice, MERO 100 mg/kg, 24 h, change of average log CFU/thigh vs vehicle at 24 h): 0.67; Thigh bacterial burden outcome ([9]; ACC00535, neutropaenic mice): bacterial outgrowth
CN1C(=O)[C@H](CCCCN)NC(=O)[C@H](CCCN)NCc2cccnc2Sc2cccc(-c3ccc(C(=O)O)cc3)c2CNC(=O)[C@@H]1Cc1c[nH]c2ccccc12 [zosurabalpin] | >50 (3A4) >50 (2C9) >50 (2D6) μM | – | – | – | > 70 | 2 | 4 | 9 | 0 # | Transiently discolored tail after dosing | Transiently discolored tail after dosing, body weight loss | No relevant changes | No change | No change | Minimally increased BUN, creatine. Minimally decreased phosphorus | No change | No change | 6 | None | Bacterial Load (average) ([9]; 6 mg/kg/day q6h, 24 h): 8.75; Bacterial Load (average) ([9]; 20 mg/kg/day q6h, 24 h): 7.85; Bacterial Load (average) ([9]; 60 mg/kg/day q6h, 24 h): 7.41; Bacterial Load (average) ([9]; 100 mg/kg/day q6h, 24 h): 6.21; Bacterial Load (average) ([9]; 160 mg/kg/day q6h, 24 h): 4.10; Bacterial Load (average) ([9]; 240 mg/kg/day q6h, 24 h): 3.37; Bacterial Load (average) ([9]; 360 mg/kg/day q6h, 24 h): 3.09
